Test results from ChEMBL document CHEMBL1122534, “Synthesis of 4-substituted 2H-naphth[1,2-b]-1,4-oxazines, a new class of dopamine agonists” (J Med Chem, 1984).

Biological target: Dopamine receptor (Rattus norvegicus) (UniProt P25115+P19020+P30729+P18901+P61169)
Test: ED50 for induction of contralateral turning behavior in 6-hydroxydopamine (6-OHDA) lesioned rats by ip administration.
Type: functional, organism-based

| Structure (SMILES) | ED50 |
| --- | --- |
| c1ccc2c(c1)CC[C@H]1NCCOC21 (some centres not stated) | 30 mg/kg |
| CCN1CCOC2c3ccccc3CC[C@H]21 (some centres not stated) | 1.7 mg/kg |
